Measured values from patent publication US6958162B2, “Herbal composition for treating allergic disorders and method for making the same” (Industrial Technology Research Institute, priority 2003, dated 2005).

How the values were obtained:
[1] = tested on: IL-4 released from EL-4 cells; assay: Measurement of IL-4 released from stimulated EL-4 cells (ELISA); format: cell-based, mouse; conditions: FIG. 3b, 3c
Method: During the day of experiment, the herbal drug was diluted in the cell culture medium to the end point (0.5 μg/ml, 5 μg/ml, or as appropriate). The ability of each herbal composition and its mixtures to affect the production of IL-4, TNF-alpha, and cLT was measured.
The mouse thymoma cell lines, EL-4 were incubated with each composition or mixture for 2 hours before it was stimulated by 100 ng/ml of A23187 and PMA. Samples of tissue culture medium were collected at the end of 24 hours incubation and stored at −70 degrees C. prior to assay.
Cytokine measurements were carried out using the commercially available ELISA assay kit (R&D Systems, Minneapolis, Minn.) in accordance with the supplier's protocols. In brief, 100 μl of the assay buffer supplied was added to each of the wells of a micro-titer plate containing pre-bound anti-cytokine antibody, followed by 100 μl of a standard or sample solution, diluted appropriately for the concentration range measured. All incubations were carried out at 37 degrees C. After two hours incubation, the plates were washed four times with a wash buffer, and the second antibody, Detection Antibody, was added with 1:200 in Reagent Diluent to each well. The plates were sealed and incubated for 2 hours. […] Optical sensitivity was determined at 450 nm using a Molecular Devices of micro-titer plate reader.

pulmonary function = assay: Pulmonary function determination (barometric plethysmograph, methacholine) in Der p 2 allergic mice; format: in vivo, Balb/c mice; conditions: DEX 1 μg/mouse/day, TCM 20 mg/mouse/day; result in words
Method: Male Balb/c mice were obtained from the National Laboratory Breeding Research Center in Taiwan and were raised in a specific pathogen-free environment. These mice used were between 6 and 8 weeks of age. Groups of six mice were caged separately according to their treatments. Recombinant Dermatophoides pteronyssinus group 2 (Der p 2) was prepared from Dr. Tsai's lab and test drugs, Traditional Chinese Medicine A (TCM-A, or 1217A in FIGS. 7, 8, 9, and 10) and Traditional Chinese Medicine B (TCM-B, or 1217B in FIGS. 7, 8, 9, and 10) were prepared from the Biomedical Engineering Center Industrial Technology Research Institute, Hsinchu, Taiwan. […]
Each mouse was placed inside a barometric plethysmograph (Buxco Electronics, Troy, N.Y.). […] The pressure signal was amplified, digitized via an A/D convert card, and sent to a computer with a BioSystem XA program (Buxco Electronics, Troy, N.Y.), which sampled and calculated desired respiratory parameters. […]
An aerosol was generated by placing a 5 ml saline or methacholine (1.56 to 50.00 mg/ml) solution in the cup of an ultrasonic nebulizer (DeVilbiss, Somerset, Pa.) and it was delivered via a connecting tube and a three-way connector to the animal chamber of the plethysmograph. […] At first, each mouse inhaled the saline aerosol for 3 mins and then the respiratory parameters were measured for 3 mins. […]

[2] = tested on: inflammatory cells in the BAL fluids; assay: Der p 2 induced allergic airway inflammation in mice: cell counts in BAL fluid; format: in vivo, Balb/c mice; conditions: DEX 1 μg/mouse/day, mean ± SEM
Method: Male Balb/c mice were obtained from the National Laboratory Breeding Research Center in Taiwan and were raised in a specific pathogen-free environment. These mice used were between 6 and 8 weeks of age. Groups of six mice were caged separately according to their treatments. Recombinant Dermatophoides pteronyssinus group 2 (Der p 2) was prepared from Dr. Tsai's lab and test drugs, Traditional Chinese Medicine A (TCM-A, or 1217A in FIGS. 7, 8, 9, and 10) and Traditional Chinese Medicine B (TCM-B, or 1217B in FIGS. 7, 8, 9, and 10) were prepared from the Biomedical Engineering Center Industrial Technology Research Institute, Hsinchu, Taiwan.
Mice were immunized by intraperitoneal (i.p.) injection of 1 μg/0.1 ml Der p 2 emulsified in 4 μg/0.062 ml aluminum hydroxide Al(OH)3 (Whitehall Lab Ltd, Punchbowel, Australia) on day 0 and day 7. After immunization, mice were fed with TCM for 3 weeks. Mice of different groups were fed with Dexamethasome (1 μg/mouse/day), TCM-A (20 mg/mouse/day), TCM-B (20 mg/mouse/day) or normal saline 500 μl/mouse/day. On days 28 and 35, mice were lightly anesthetized with an i.p. injection of 60 mg/kg of sodium pentobarbital (Sigma Chemical Co., St. Louis, Mo., USA) and intratracheally (i.t.) inoculated with 1 μg/50 μl of Der p 2. Twenty-four hours after the second i.t. inoculation, mice were sacrificed after pulmonary function measurement.
After pulmonary function measurement, bronchoalveolar lavage (BAL) was performed with the following procedure. Two separate injections of 1 ml sterile endotoxin-free saline were given into the lung via the trachea of each mouse. Approximately 1.8 ml of the bronchoalveolar lavage (BAL) fluid was recovered constantly. The BAL fluids were aspirated and stored at −70° C. until assay. After total leukocyte counting, a cytospin preparation of […] BAL fluid was stained with Liu stain (Tonyar Diagnostic Inc, Taipei County, Taiwan) and differential counts were performed on 200 cells. […] Blood samples were obtained via the orbital sinus and sera were collected and stored at −70° C. until assay.

Compound	effect on IL-4 released from EL-4 cells (excipients and powder with excipients) [1]	pulmonary function of allergic animals (methacholine from low dose to high dose) (pulmonary function)	Differential Counts, Eos ([2]; BAL fluid, TCM 20 mg/mouse/day)	Differential Counts, Lym ([2]; BAL fluid, TCM 20 mg/mouse/day)	Differential Counts, Macro ([2]; BAL fluid, TCM 20 mg/mouse/day)	Differential Counts, Neu ([2]; BAL fluid, TCM 20 mg/mouse/day)	Total cell NO in BAL fluid ([2]; fed 3 weeks, TCM-A or TCM-B 20 mg/mouse/day)
O=P([O-])([O-])[O-].O=P([O-])([O-])[O-].[Ca+2].[Ca+2].[Ca+2] [Ca3(PO4)2]	do not have any effect	–	–	–	–	–	–
C[C@@H]1C[C@H]2[C@@H]3CCC4=CC(=O)C=C[C@]4(C)[C@@]3(F)[C@@H](O)C[C@]2(C)[C@@]1(O)C(=O)CO [DEX, Dexamethasone]	–	can improve the pulmonary function	3.2 ± 0.4 ×10^4/ml	9.4 ± 1.5 ×10^4/ml	29.2 ± 4.4 ×10^4/ml	6.6 ± 1.0 ×10^4/ml	46.4 ± 2.2 ×10^4/ml
